Converted amounts (≈) assume the structure as drawn. Counter-ions that a name gives are not always drawn.
Tests used:
[1] = test system: B. Fragilis NCTC 9343; experiment: Anti-anaerobic activity, strain B (microtitre plate MIC/MBC); type: cell-based, Bacteroides fragilis; conditions: Bacteroides fragilis, NCTC9343, 48 h, strain B; for MIC: 48 hours, 37° C., anaerobic chamber, lowest concentration with no detectable growth, read-out: MIC; for MBC: less than 5 colonies (99.9% reduction in viable count) after 48 hours, read-out: MBC
[2] = test system: B. Fragilis WS-1; experiment: Anti-anaerobic activity, strain E (microtitre plate MIC/MBC); type: cell-based; conditions: Bacteroides fragilis, 48 h, strain E; for MBC: less than 5 colonies (99.9% reduction in viable count) after 48 hours, read-out: MBC; for MIC: 48 hours, 37° C., anaerobic chamber, lowest concentration with no detectable growth, read-out: MIC
[3] = test system: B. Fragilis NCTC 9344; experiment: Anti-anaerobic activity, strain C (microtitre plate MIC/MBC); type: cell-based; conditions: Bacteroides fragilis, NCTC9344, 48 h, strain C; for MBC: less than 5 colonies (99.9% reduction in viable count) after 48 hours, read-out: MBC; for MIC: 48 hours, 37° C., anaerobic chamber, lowest concentration with no detectable growth, read-out: MIC
[4] = test system: B. Fragilis NCTC 10581; experiment: Anti-anaerobic activity, strain A (microtitre plate MIC/MBC); type: cell-based, Bacteroides fragilis; conditions: Bacteroides fragilis, NCTC10581, 48 h, strain A; for MIC: 48 hours, 37° C., anaerobic chamber, lowest concentration with no detectable growth, read-out: MIC; for MBC: less than 5 colonies (99.9% reduction in viable count) after 48 hours, read-out: MBC
[5] = test system: B. Fragilis ATCC 11295; experiment: Anti-anaerobic activity, strain D (microtitre plate MIC/MBC); type: cell-based; conditions: Bacteroides fragilis, ATCC11295, 48 h, strain D; for MBC: less than 5 colonies (99.9% reduction in viable count) after 48 hours, read-out: MBC; for MIC: 48 hours, 37° C., anaerobic chamber, lowest concentration with no detectable growth

SMILES	MIC [1] [µg/mL]	MIC [4] [µg/mL]	MIC [2] [µg/mL]	MIC [3] [µg/mL]	MIC [5] [µg/mL]	MBC [1] [µg/mL]	MBC [2] [µg/mL]	MBC [3] [µg/mL]	MBC [4] [µg/mL]	MBC [5] [µg/mL]
Cc1nccn1CC(C1=NCCN1c1ccc(Cl)cc1Cl)c1ccccc1 (centres unmarked) [Example 21, 1-(2,4-Dichlorophenyl)-4,5-dihydro-2-[2-(2-methylimidazol-1-yl)-1-phenylethyl]imidazole dihydrochloride]	1.5	12.5				1.5	0.8	0.8	12.5	0.8
CCCCCCN1CCN=C1C(Cn1ccnc1)c1ccccc1.Cl (centres unmarked) [Example 25, 4,5-Dihydro-1-n-hexyl-2-[2-(imidazol-1-yl)-1-phenylethyl]imidazole hydrochloride]	100	25	100	100	100					
Cc1ccc(N2CCN=C2C(Cn2ccnc2)c2ccccc2)c(C)c1 (centres unmarked) [Example 24, 4,5-Dihydro-1-(2,4-dimethylphenyl)-2-[2-(imidazol-1-yl)-1-phenylethyl]imidazole dihydrochloride]	12.5	25	25	12.5	12.5					
c1ccc(CCCN2CCN=C2C(Cn2ccnc2)c2ccccc2)cc1 (centres unmarked) [Example 18, 4,5-Dihydro-2-[2-(imidazol-1-yl)-1-phenylethyl]-1-(3-phenylpropyl)imidazoledihydrochloride]	25	25	25	50	25					
CCCCCCCCCCN1CCN=C1C(Cn1ccnc1)c1ccccc1.Cl.Cl (centres unmarked) [Example 26, 1-n-Decyl-4,5-dihydro-2-[2-(imidazol-1-yl)-1-phenylethyl]imidazole dihydrochloride]		2.1					3.1	3.1	3.1	50
Brc1ccc(N2CCN=C2C(Cn2ccnc2)c2ccccc2)c(Br)c1 (centres unmarked) [Example 2, 1-(2,4-Dibromophenyl)-4,5-dihydro-2-[2-imidazol-1-yl)-1-phenylethyl]imidazole dihydrochloride]				1.5	1.5	12.5	2.5	50	3.1	12.5

Further lines, with some results ahead:

MIC [1] [µg/mL]	MIC [4] [µg/mL]	MIC [2] [µg/mL]	MIC [3] [µg/mL]	MIC [5] [µg/mL]	SMILES	MBC [1] [µg/mL]	MBC [2] [µg/mL]	MBC [3] [µg/mL]	MBC [4] [µg/mL]	MBC [5] [µg/mL]
1.5	6.2				CSc1nccn1CC(C1=NCCN1c1ccc(Cl)cc1Cl)c1ccccc1 (centres unmarked) [Example 22, 1-(2,4-Dichlorophenyl)-4,5-dihydro-2-[1-phenyl-2-(2-thiomethylimidazol-1-yl)ethyl]imidazole dihydrochloride]	1.5	3.1	3.1	6.2	3.1
		6.2 (≈ 15.5 µM)			Clc1ccc(CN2CCN=C2C(Cn2ccnc2)c2ccccc2)c(Cl)c1 (centres unmarked) [Example 15, 1-(2,4-Dichlorophenylmethyl)-4,5-dihydro-2-[2-(imidazol-1-yl)-1-phenylethyl]imidazole]					
		100			Clc1ccc(CN2CCN=C2C(Cn2cccn2)c2ccccc2)c(Cl)c1 (centres unmarked) [Example 16, 1-(2,4-Dichlorophenylmethyl)-4,5-dihydro-2-[1-phenyl-2-(pyrazol-1-yl)ethyl]imidazole dihydrochloride]					
12.5 (≈ 35.6 µM)		12.5 (≈ 35.6 µM)	6.2 (≈ 17.7 µM)	6.2 (≈ 17.7 µM)	Clc1ccccc1N1CCN=C1C(Cn1ccnc1)c1ccccc1 (centres unmarked) [Example 1, 1-(2-Chlorophenyl)-4,5-dihydro-2[2-(imidazol-1-yl)-1-phenylethyl]imidazole]					
	50	50	50	50	Clc1ccc(CN2CCN=C2C(Cn2cncn2)c2ccccc2)c(Cl)c1 (centres unmarked) [Example 17, 1-(2,4-Dichlorophenylmethyl)-4,5-dihydro-2-[1-phenyl-2-(1,2,4-triazol-1-yl)ethyl]imidazole dihydrochloride]					
25 (≈ 64.7 µM)	12.5 (≈ 32.4 µM)	25 (≈ 64.7 µM)	25 (≈ 64.7 µM)	25 (≈ 64.7 µM)	Clc1ccc(N2CCN=C2C(Cn2cncn2)c2ccccc2)c(Cl)c1 (centres unmarked) [Example 20, 1-(2,4-Dichlorophenyl)-4,5-dihydro-2-[1-phenyl-2-(1,2,4-triazol-1-yl)ethyl]imidazole]					

Source: US4661602A, “Substituted alkyl imidazole derivatives” (G. D. Searle & Co., priority 1985, dated 1987)
